From US9828344B2, “Inhibitors of the notch signaling pathway and secretion for use in medicine” (Leibniz-Institut für Altersforschung Fritz-Lipmann-Institut …, priority 2012, dated 2017)
Peptide text beside a SMILES is read from it. * marks the point of attachment. Cbz = O=C(OCc1ccccc1)*; OtBu = CC(C)(C)O*

What was measured:
microtubuli or actin = assay: Microtubule and actin integrity in HeLa cells; assay type: cell-based; details: 4 h
YFP-GPI = assay: Surface transport of YFP-GPI in HeLa cells; assay type: cell-based; details: 18 h; 1 ig/ml BFA or 10 iM FLI-06
zebrafish embryos = assay: Zebrafish embryo Notch phenotype (somites, ngn1 qPCR and ISH); assay type: in vivo, zebrafish Danio rerio; details: 50 μM; for ngn1 positive cell clusters in the developing brain (ISH): compared to DMSO controls; for ngn1 positive cell clusters along the spinal cord (ISH): compared to DMSO-treated control embryos; for ngn1 mRNA levels (qPCR): relative to DMSO controls
Procedure: Cells were incubated with DAPT or 10 μM of the indicated compounds (50 μM in case of FLI-15 and -20) and after 16 h a luciferase assay was performed. […] Changes in relative gene expression levels (fold change) relative to the expression levels in DMSO controls are represented as the mean+/−SD, asterisks indicate p<0.01. Each measurement was taken from two independent samples. Each reaction was measured in triplicate. Changes in the relative expression of ngn1 were standardized to the expression of the housekeeping gene ef1a at 20 hpf. c) ISH with riboprobes specific for ngn1 was performed on dechorionated stage 4 hpf zebrafish embryos. Anterior is to the left, dorsal to the top. Magnifications of the somite region (small box) are shown. Arrows indicate larger ngn1 clusters or stronger ngn1 staining. s, sensory neurons; i, intermediate neurons; m, motor neurons.
FIG. 11: Selected compounds affect somite formation and neurogenesis in vivo in zebrafish embryos. a) Lateral view of typical representative phenotypes induced by DAPT treatment, which were used as a reference to score the effect of compounds. […] Images were taken at 24 hpf. b) Pie chart showing the cumulative relative frequency of the phenotypes in a) at 24 hpf in embryos treated with 20, 50 and 100 iM of the indicated compounds. c) ISH with riboprobes specific for ngn1 was performed on dechorionated stage 4 hpf zebrafish embryos. Anterior is to the left, dorsal to the top. Magnifications of the developing head (box) are shown. Arrows indicate larger ngn1 clusters or stronger ngn1 staining. t, telencephalon; p, protectum; h, hindbrain; d, diencephalon; tg, tegmentum; vrc, ventral rostral cluster.
We wanted to test whether the results obtained with the NotchΔE-EGFP construct are relevant for endogenous Notch signaling. Therefore we made use of C2C12 cells, a well established model for muscle development that expresses endogenous Notch^21,22. After stimulating endogenous Notch signaling by transfecting the Notch ligand Delta, Notch activity was measured by a luciferase assay using a Notch reporter^15 in the presence or absence of compounds (FIG. 4a). […] Next, we tested whether selected compounds would affect Notch signaling in vivo. […] Compounds were added to dechorionated stage 4 hpf zebrafish embryos and the effects were analyzed after 24 h by morphological inspection of somite formation. Phenotypes were ranked to four categories, normal somites, mild somite defects, strong somite defects and developmental delay. […] As an additional parameter we decided to analyze Notch-dependent genes involved in neurogenesis. Primary neurogenesis in zebrafish involves the selection of neuroblasts (repressed by Notch) from proneural clusters (Notch expressing cells), a process regulated in a negative manner by Notch-dependent lateral inhibition^25. Accordingly, neuroblast cells that express the neuronal specification factor neurogenin (ngn1^26) became more abundant when Notch signaling was impaired, for instance upon DAPT treatment^23,27. qPCR analyses on mRNA extracted from equivalent sets of embryos was performed for ngn1 expression (FIG. 4b). […] To confirm the data obtained by qPCR, whole-mount in-situ hybridizations (ISH) using an ngn1 specific riboprobe were performed (FIG. 4c, FIG. 11c). […] Taken together, FLI-06, -14, -15, -19 and -20 inhibited endogenous Notch signaling in vitro and in vivo, corroborating the NotchΔE-EGFP reporter data.
Embryos were obtained from natural spawning of wild-type TüAB strain adults, raised and staged according to supp. Ref 14. DAPT and compounds were applied at 50 iM in E3 embryo medium to zebrafish embryos with chorions torn but not completely removed from sphere stage until the stage of analysis, according to ref 23. Control embryos were mock treated with the same concentration of DMSO dissolved in E3 embryo medium. […]

NotchΔE-EGFP = assay: Western blot of NotchΔE-EGFP processing in HeLa NotchΔE-EGFP lysates; assay type: cell-based; details: 10 μM, 18 h
Procedure: FIG. 2: Selected compounds from final hit list show distinct phenotypes. Hela NotchΔE-EGFP cells were incubated with compounds (10 μM) for 18 h, fixed and analyzed by fluorescence microscopy (a) or lysed, separated by SDS-PAGE, blotted and probed with antibodies against GFP and NICD (b). Tubulin served as loading control. c) Quantitation of NotchΔE-EGFP accumulation and NICD production from 3-4 experiments as shown in (b). […] Arrows, plasma membrane; scalebar, 10 μm.
Next, lysates of HeLa NotchΔE-EGFP cells treated with compounds were analyzed for processing of NotchΔE-EGFP by Western blot using antibodies specific for EGFP and NICD (FIG. 2b, c). The GFP antibody detected both the uncleaved reporter NotchΔE-EGFP and the γ-secretase product NICD-EGFP, whereas the NICD-specific antibody specifically detected cleaved NICD-EGFP. […] The observed effects were not cell type specific, as they were also apparent in U2OS cells stably expressing NotchΔE-EGFP (FIG. 9).

APP = APP processing in HEK293 cells stably expressing APPswe; assay type: cell-based; details: 10 μM, 16 h
Procedure: FIG. 3: Effect of compounds on NotchΔE-EGFP, APP and Klotho trafficking and processing. a) HEK293 stably expressing APPswe or Klotho (KI) were incubated with DAPT or compounds (10 μM) for 16 h. Media were collected, cells lysed and both assayed by Western blotting using indicated antibodies. m, mature; im, immature; s, shedded ectodomain; CTF, C-terminal fragment. b) Membranes from HeLa-NotchΔE-EGFP and APPswe cells were isolated and subjected to a γ-secretase in vitro assay in the presence of DAPT or compounds as indicated. NICD and AICD were detected by Western Blotting using antibodies against the C-terminus of APP (top) or antibodies specific for NICD (bottom). c) Quantitation from 5 independent experiments.
To test if the compounds that affected NotchΔE-EGFP processing also affected APP processing, HEK293 cells were used that stably expressed APPswe, a mutated APP that yields robust amounts of Aβ^18. […] All other compounds had no effect on APPCTF or Aβ.
APP, APPs, APPCTF and Aβ detection was as described before^54 using antibodies 22C11 for APP and APPs, 6687 for APPCTF and 3552 and 2D8 for Aβ. Klotho was detected as described in Bloch et al.^20. Chemoluminescence was quantified on a LAS-4000 (Fuji) with MultiGauge software.

SEAP = assay: Secreted alkaline phosphatase (SEAP) assay in HeLa cells; assay type: cell-based; details: medium measured via photometry
Procedure: FIG. 18: FLI-06 inhibits secretion of secreted alkaline phosphates; FLI-06 kills cancerous, Notch dependent T-cells. a) The secreted alkaline phosphatase (SEAP) assay was carried out. Medium was collected and SEAP secretion was measured via photometry. […] The cells were grown in suspension with the indicated amounts of FLI-06 or DMSO control and growth was determined via FACS analysis.
In order to confirm the inhibitory effect of FLI-06 on secretion we transfected HeLa cells with a plasmid encoding a secreted alkaline phosphatase (SEAP).

SMILES	microtubule network (microtubuli or actin; 1.5 ig/ml nocodazole or 10 iM FLI-06)	actin polymerization and distribution (microtubuli or actin; 2 iM cytochalasin D or 10 iM FLI-06)	surface transport of YFP-GPI (YFP-GPI)	ngn1 positive cell clusters in the developing brain (ISH) (zebrafish embryos)	ngn1 positive cell clusters along the spinal cord (ISH) (zebrafish embryos)	ngn1 mRNA levels (qPCR) (zebrafish embryos)	NICD-EGFP production (NotchΔE-EGFP)	NotchΔE-EGFP level (GFP antibody) (NotchΔE-EGFP)	APPCTF in cells (APP)	APPs (shedded ectodomain) secretion (APP)	Aβ in the cell supernatant (APP)	glycosylation pattern of APP (APP)	secretion of SEAP (SEAP)
CC1=C(C(=O)OC2CCCCC2)C(c2ccc([N+](=O)[O-])cc2)C2=C(CC(C)(C)CC2=O)N1 (stereo not drawn) [FLI-06, Cyclohexyl 4-(4′-nitrophenyl)-2,7,7-trimethyl-5-oxo-1,4,5,6,7,8-hexahydroquinoline-3-carboxylate]	does not act on the cytoskeleton	unaffected	inhibit surface transport of YFP-GPI	differentially expanded	expanded and denser clusters of ngn1 positive cells	significantly increased	decreased NICD-EGFP production	accumulation of NotchΔE-EGFP	no APPCTF accumulated	abolished the shedding of APPs	essentially disappeared	changed the glycosylation pattern of APP	inhibition of secretion of SEAP
Cn1c2ccccc2c2c(C(=O)N3CCN(Cc4ccc5c(c4)OCO5)CC3)cn(C3CCCC3)c(=O)c21 [FLI-14]	–	–	–	differentially expanded	expanded and denser clusters of ngn1 positive cells	significantly increased	decreased NICD-EGFP production	accumulation of NotchΔE-EGFP	accumulated	–	essentially disappeared	–	–
Cc1ccc(NC(=O)C(NS(=O)(=O)c2cccc3nsnc23)C(C)C)nc1 (stereo not drawn) [FLI-15]	–	–	–	differentially expanded	expanded and denser clusters of ngn1 positive cells	significantly increased	decreased NICD-EGFP production	accumulation of NotchΔE-EGFP	accumulated	–	weakly reduced	–	–
CC(C)CC(NC(=O)C(Cc1ccccc1)NC(=O)C1CCCN1C(=O)OCc1ccccc1)C(=O)OC(C)(C)C (stereo not drawn) [FLI-19] (Cbz-Pro-Phe-Leu-OtBu; configuration not given here)	–	–	–	–	increased	did not induce significant changes	–	accumulation of NotchΔE-EGFP	–	reduced APPs secretion	–	–	–
CC(=O)Nc1ccc2nc(NC(=O)CC34CC5CC(CC(C5)C3)C4)sc2c1 [FLI-20]	–	–	–	differentially expanded	expanded and denser clusters of ngn1 positive cells	significantly increased	decreased NICD-EGFP production	accumulation of NotchΔE-EGFP	accumulated	reduced APPs secretion	weakly reduced	–	–
